Converted amounts (≈) assume the structure as drawn.
What was measured:
Format in all cases: functional
Candida albicans [1] = assay: Antifungal activity against Candida albicans SC5314 incubated for 24 hrs by microbroth dilution method
Aspergillus fumigatus = assay: Antifungal activity against Aspergillus fumigatus 7544 incubated for 48 hrs by microbroth dilution method
Cryptococcus neoformans [2] = assay: Antifungal activity against Cryptococcus neoformans H99 incubated for 72 hrs by microbroth dilution method
Cryptococcus neoformans [3] = assay: Antifungal activity against Cryptococcus neoformans 32605
Candida albicans [4] = assay: Antifungal activity against Candida albicans Y0109
Candida parapsilosis = assay: Antifungal activity against Candida parapsilosis 22019; details: Lodderomyces parapsilosis
Trichophyton rubrum = assay: Antifungal activity against Trichophyton rubrum cmccftla
Nakaseomyces glabratus = assay: Antifungal activity against Candida glabrata 537
Nannizzia gypsea = assay: Antifungal activity against Microsporum gypseum

Structure (SMILES) | MIC (Candida albicans [1]) | MIC (Aspergillus fumigatus) | MIC (Cryptococcus neoformans [2]) | MIC (Cryptococcus neoformans [3]) | MIC (Candida albicans [4]) | MIC (Candida parapsilosis) | MIC (Trichophyton rubrum) | MIC (Nakaseomyces glabratus) | MIC (Nannizzia gypsea)
C[C@@H](c1cn(-c2ccc(OCc3ccc(C(C)(C)C)cc3)cc2)nn1)[C@](O)(Cn1cncn1)c1ccc(F)cc1F | 0.125 µg/mL (≈ 0.224 µM) | > 64 µg/mL | 0.5 µg/mL (≈ 0.895 µM) | – | – | – | – | – | –
C[C@@H](c1cn(-c2ccc(OCc3ccc(C#N)cc3)cc2)nn1)[C@](O)(Cn1cncn1)c1ccc(F)cc1F | 0.125 µg/mL (≈ 0.237 µM) | > 64 µg/mL | – | – | – | – | – | – | –
C[C@@H](c1cn(-c2ccc(O)cc2)nn1)[C@](O)(Cn1cncn1)c1ccc(F)cc1F | 3 µg/mL (≈ 7.27 µM) | > 64 µg/mL | 2 µg/mL (≈ 4.85 µM) | – | – | – | – | – | –
C[C@@H](c1cn(-c2ccc([N+](=O)[O-])cc2)nn1)[C@](O)(Cn1cncn1)c1ccc(F)cc1F | – | > 64 µg/mL | 0.25 µg/mL (≈ 0.566 µM) | – | – | – | – | – | –
C[C@@H](c1cn(-c2cccc(F)c2)nn1)[C@](O)(Cn1cncn1)c1ccc(F)cc1F | 0.0625 µg/mL (≈ 0.151 µM) | 16 µg/mL (≈ 38.6 µM) | 0.125 µg/mL (≈ 0.302 µM) | – | – | – | – | – | –
C[C@@H](c1cn(-c2cncnc2)nn1)[C@](O)(Cn1cncn1)c1ccc(F)cc1F | 0.5 µg/mL (≈ 1.26 µM) | 64 µg/mL (≈ 161 µM) | 4 µg/mL (≈ 10 µM) | – | – | – | – | – | –
C[C@@H](c1cn(-c2cccnc2)nn1)[C@](O)(Cn1cncn1)c1ccc(F)cc1F | 0.25 µg/mL (≈ 0.629 µM) | 32 µg/mL (≈ 80.5 µM) | 2 µg/mL (≈ 5.03 µM) | – | – | – | – | – | –
C[C@@H](c1cn(-c2ccc(S(C)(=O)=O)cc2)nn1)[C@](O)(Cn1cncn1)c1ccc(F)cc1F | 0.5 µg/mL (≈ 1.05 µM) | > 64 µg/mL | 4 µg/mL (≈ 8.43 µM) | – | – | – | – | – | –
C[C@@H](c1cn(-c2ccc(Cl)cc2)nn1)[C@](O)(Cn1cncn1)c1cc(F)ccc1F | 0.125 µg/mL (≈ 0.29 µM) | 32 µg/mL (≈ 74.3 µM) | 0.125 µg/mL (≈ 0.29 µM) | – | – | – | – | – | –

Now from value to compound:

MIC (Candida albicans [1]) | MIC (Aspergillus fumigatus) | MIC (Cryptococcus neoformans [2]) | MIC (Cryptococcus neoformans [3]) | MIC (Candida albicans [4]) | MIC (Candida parapsilosis) | MIC (Trichophyton rubrum) | MIC (Nakaseomyces glabratus) | MIC (Nannizzia gypsea) | Structure (SMILES)
0.0625 µg/mL (≈ 0.133 µM) | 2 µg/mL (≈ 4.27 µM) | 0.0625 µg/mL (≈ 0.133 µM) | – | – | – | – | – | – | C[C@@H](c1cn(-c2c(F)c(F)cc(F)c2F)nn1)[C@](O)(Cn1cncn1)c1ccc(F)cc1F
1 µg/mL (≈ 1.75 µM) | 16 µg/mL (≈ 28 µM) | 0.125 µg/mL (≈ 0.219 µM) | – | – | – | – | – | – | C[C@@H](c1cn(-c2ccc(OCc3ccc(C(F)(F)F)cc3)cc2)nn1)[C@](O)(Cn1cncn1)c1ccc(F)cc1F
0.0625 µg/mL (≈ 0.139 µM) | 4 µg/mL (≈ 8.91 µM) | 0.0625 µg/mL (≈ 0.139 µM) | – | – | – | – | – | – | C[C@@H](c1cn(-c2ccc(Cl)cc2F)nn1)[C@](O)(Cn1cncn1)c1cc(F)ccc1F
0.125 µg/mL (≈ 0.252 µM) | 8 µg/mL (≈ 16.1 µM) | 0.0625 µg/mL (≈ 0.126 µM) | – | – | – | – | – | – | CCCCCCOc1ccc(-n2cc([C@H](C)[C@](O)(Cn3cncn3)c3ccc(F)cc3F)nn2)cc1
0.0313 µg/mL (≈ 0.0677 µM) | 8 µg/mL (≈ 17.3 µM) | 0.125 µg/mL (≈ 0.27 µM) | – | – | – | – | – | – | C[C@@H](c1cn(-c2ccc(OC(F)F)cc2)nn1)[C@](O)(Cn1cncn1)c1ccc(F)cc1F
0.0313 µg/mL (≈ 0.0697 µM) | 16 µg/mL (≈ 35.6 µM) | 0.0625 µg/mL (≈ 0.139 µM) | – | – | – | – | – | – | C[C@@H](c1cn(-c2ccc(Cl)c(F)c2)nn1)[C@](O)(Cn1cncn1)c1ccc(F)cc1F
0.0625 µg/mL (≈ 0.135 µM) | 16 µg/mL (≈ 34.5 µM) | 0.0625 µg/mL (≈ 0.135 µM) | – | – | – | – | – | – | C[C@@H](c1cn(-c2ccc(C(F)(F)F)cc2)nn1)[C@](O)(Cn1cncn1)c1ccc(F)cc1F
0.0313 µg/mL (≈ 0.0632 µM) | 2 µg/mL (≈ 4.04 µM) | 0.0625 µg/mL (≈ 0.126 µM) | – | – | – | – | – | – | C[C@@H](c1cn(-c2ccc(OCC(F)(F)F)nc2)nn1)[C@](O)(Cn1cncn1)c1ccc(F)cc1F
0.0625 µg/mL (≈ 0.151 µM) | 2 µg/mL (≈ 4.83 µM) | 0.0625 µg/mL (≈ 0.151 µM) | – | – | – | – | – | – | C[C@@H](c1cn(-c2ccccc2F)nn1)[C@](O)(Cn1cncn1)c1ccc(F)cc1F
0.0625 µg/mL (≈ 0.145 µM) | 2 µg/mL (≈ 4.63 µM) | 0.0625 µg/mL (≈ 0.145 µM) | 0.0313 µg/mL (≈ 0.0724 µM) | 0.0625 µg/mL (≈ 0.145 µM) | 0.0313 µg/mL (≈ 0.0724 µM) | 0.125 µg/mL (≈ 0.289 µM) | 0.0313 µg/mL (≈ 0.0724 µM) | 2 µg/mL (≈ 4.63 µM) | C[C@@H](c1cn(-c2ccc(F)cc2F)nn1)[C@](O)(Cn1cncn1)c1ccc(F)cc1F
0.0313 µg/mL (≈ 0.0633 µM) | 2 µg/mL (≈ 4.05 µM) | 0.125 µg/mL (≈ 0.253 µM) | – | – | – | – | – | – | C[C@@H](c1cn(-c2ccc(OCC(F)(F)F)cc2)nn1)[C@](O)(Cn1cncn1)c1ccc(F)cc1F
0.0156 µg/mL (≈ 0.0333 µM) | 2 µg/mL (≈ 4.27 µM) | 0.0625 µg/mL (≈ 0.133 µM) | – | – | – | – | – | – | CCCCOc1ccc(-n2cc([C@H](C)[C@](O)(Cn3cncn3)c3ccc(F)cc3F)nn2)cc1
